This passage reports Activity, EC50 and Tm results from ChEMBL document CHEMBL3390848, “Affinity selection and sequence-activity relationships of HIV-1 membrane fusion inhibitors directed at the drug-resistant variants” (Medchemcomm, 2010).

Residues, ends and D or L forms follow the SMILES beside them.

Test [1] has as its system Human immunodeficiency virus 1. As to the kind of experiment: Binding affinity to HIV1 His-tagged N-terminal heptad repeat of envelope glycoprotein gp41 assessed as recovery of N36-drug complex at 0.6 uM after 2 hrs by LC-MS analysis.
The test system of test [2] is Human immunodeficiency virus 1. As to the kind of experiment: Binding affinity to HIV1 His-tagged N-terminal heptad repeat of envelope glycoprotein gp41 assessed as recovery of N36-drug complex at 6 uM after 2 hrs by LC-MS analysis.
Test [3] relates to Human immunodeficiency virus 1. As to the kind of experiment: Binding affinity to HIV1 His-tagged N-terminal heptad repeat of envelope glycoprotein gp41 assessed as recovery of N36-drug complex at 1 uM after 2 hrs by LC-MS analysis.
Test [4] relates to Human immunodeficiency virus 1. As to the kind of experiment: Binding affinity to HIV1 His-tagged N-terminal heptad repeat of envelope glycoprotein gp41 assessed as recovery of N36-drug complex at 10 uM after 2 hrs by LC-MS analysis.
The test system of test [5] is Human immunodeficiency virus 1. Kind of test: Antiviral activity against HIV1 NL4-3 harboring gp41 D36G mutant infected in human HeLa cells expressing CD4-LTR-beta-gal assessed as inhibition of viral replication after 48 hrs by MAGI assay. Type of test: functional, organism-based.
In test [6] the test system is Human immunodeficiency virus 1. Kind of test: Thermal stability of HIV1 envelope glycoprotein gp41 His-tagged N-terminal heptad repeat N36-drug complex assessed as thermal unfolding transition state by measuring molar ellipticity at 4 to 90 degC by circular dichroic spectra analysis.

For the compound `CC[C@H](C)[C@H](NC(=O)[C@H](CC(C)C)NC(=O)[C@H](CCC(=O)O)NC(=O)[C@H](CCC(=O)O)NC(=O)[C@@H](NC(=O)[C@H](CCCCN)NC(=O)[C@H](CCCCN)NC(=O)[C@@H](NC(=O)[C@H](Cc1ccc(O)cc1)NC(=O)[C@H](CCC(=O)O)NC(=O)[C@H](CCC(=O)O)NC(=O)[C@@H](NC(=O)[C@H](CCCCN)NC(=O)[C@H](CCCCN)NC(=O)[C@H](CC(=O)O)NC(=O)[C@H](Cc1c[nH]c2ccccc12)NC(=O)[C@H](CCC(=O)O)NC(=O)[C@H](CCC(=O)O)NC(=O)[C@H](Cc1c[nH]c2ccccc12)NC(C)=O)[C@@H](C)CC)[C@@H](C)O)[C@@H](C)CC)C(=O)N[C@@H](CCCCN)C(=O)N[C@@H](CCCCN)C(=O)N[C@@H](CCSC)C(=O)N[C@@H](CCC(=O)O)C(=O)N[C@@H](CCC(=O)O)C(=O)N[C@@H](CCC(N)=O)C(=O)N[C@@H](CCC(N)=O)C(=O)N[C@@H](CCCCN)C(=O)N[C@@H](CCCCN)C(=O)N[C@@H](CC(N)=O)C(=O)N[C@@H](CCC(=O)O)C(=O)N[C@@H](CCC(=O)O)C(=O)N[C@@H](CCC(=O)O)C(=O)N[C@@H](CC(C)C)C(=O)N[C@@H](CCCCN)C(=O)N[C@@H](CCCCN)C(N)=O` (Ac-WEEWDKKIEEYTKKIEELIKKMEEQQKKNEEELKK-NH2), the Activity in test [1] came to 6.8%; in test [2], 13.3%; in test [3] it was 12.5%; in test [4], 8.9%. Further, the EC50 in test [5] was found to be 0.68 nM. Besides, the Tm in test [6] worked out at 84.1 °C.
Consider `CC[C@H](C)[C@H](NC(=O)[C@H](CC(C)C)NC(=O)[C@H](CCC(=O)O)NC(=O)[C@H](CCC(=O)O)NC(=O)[C@@H](NC(=O)[C@H](CCCCN)NC(=O)[C@H](CCCCN)NC(=O)[C@@H](NC(=O)[C@H](Cc1ccc(O)cc1)NC(=O)[C@H](CCC(=O)O)NC(=O)[C@H](CCC(=O)O)NC(=O)[C@@H](NC(=O)[C@H](CCCCN)NC(=O)[C@H](CCCCN)NC(=O)[C@H](CC(=O)O)NC(=O)[C@H](Cc1c[nH]c2ccccc12)NC(=O)[C@H](CCC(=O)O)NC(=O)[C@H](CCC(=O)O)NC(=O)[C@H](Cc1c[nH]c2ccccc12)NC(C)=O)[C@@H](C)CC)[C@@H](C)O)[C@@H](C)CC)C(=O)N[C@@H](CCCCN)C(=O)N[C@@H](CCCCN)C(=O)N[C@@H](CCCCN)C(=O)N[C@@H](CCC(=O)O)C(=O)N[C@@H](CCC(=O)O)C(=O)N[C@@H](CCC(N)=O)C(=O)N[C@@H](CCC(N)=O)C(=O)N[C@@H](CCCCN)C(=O)N[C@@H](CCCCN)C(=O)N[C@@H](CC(N)=O)C(=O)N[C@@H](CCC(=O)O)C(=O)N[C@@H](CCC(=O)O)C(=O)N[C@@H](CCC(=O)O)C(=O)N[C@@H](CC(C)C)C(=O)N[C@@H](CCCCN)C(=O)N[C@@H](CCCCN)C(N)=O` (Ac-WEEWDKKIEEYTKKIEELIKKKEEQQKKNEEELKK-NH2), for which the Activity was determined as 3.6% in test [1], 0.1% in test [2], 0% in test [3] and 0.2% in test [4]. Besides, the EC50 in test [5] is 8.2 nM. In test [6], the Tm was 53.5 °C.
In the case of `CC[C@H](C)[C@H](NC(=O)[C@H](CC(C)C)NC(=O)[C@H](CCC(=O)O)NC(=O)[C@H](CCC(=O)O)NC(=O)[C@@H](NC(=O)[C@H](CCCCN)NC(=O)[C@H](CCCCN)NC(=O)[C@@H](NC(=O)[C@H](Cc1ccc(O)cc1)NC(=O)[C@H](CCC(=O)O)NC(=O)[C@H](CCC(=O)O)NC(=O)[C@@H](NC(=O)[C@H](CCCCN)NC(=O)[C@H](CCCCN)NC(=O)[C@H](CC(=O)O)NC(=O)[C@H](Cc1c[nH]c2ccccc12)NC(=O)[C@H](CCC(=O)O)NC(=O)[C@H](CCC(=O)O)NC(=O)[C@H](Cc1c[nH]c2ccccc12)NC(C)=O)[C@@H](C)CC)[C@@H](C)O)[C@@H](C)CC)C(=O)N[C@@H](CCCCN)C(=O)N[C@@H](CCCCN)C(=O)N[C@@H](CC(N)=O)C(=O)N[C@@H](CCC(=O)O)C(=O)N[C@@H](CCC(=O)O)C(=O)N[C@@H](CCC(N)=O)C(=O)N[C@@H](CCC(N)=O)C(=O)N[C@@H](CCCCN)C(=O)N[C@@H](CCCCN)C(=O)N[C@@H](CC(N)=O)C(=O)N[C@@H](CCC(=O)O)C(=O)N[C@@H](CCC(=O)O)C(=O)N[C@@H](CCC(=O)O)C(=O)N[C@@H](CC(C)C)C(=O)N[C@@H](CCCCN)C(=O)N[C@@H](CCCCN)C(N)=O` (Ac-WEEWDKKIEEYTKKIEELIKKNEEQQKKNEEELKK-NH2), the Activity in test [1] was determined as 6.4%; in test [2] it was 0.5%; in test [3] it was 4.3%; in test [4], 1.1%. The EC50 in test [5] came to 2.2 nM. Besides, in test [6], the Tm is 69 °C.
For the compound `CC[C@H](C)[C@H](NC(=O)[C@H](CC(C)C)NC(=O)[C@H](CCC(=O)O)NC(=O)[C@H](CCC(=O)O)NC(=O)[C@@H](NC(=O)[C@H](CCCCN)NC(=O)[C@H](CCCCN)NC(=O)[C@@H](NC(=O)[C@H](Cc1ccc(O)cc1)NC(=O)[C@H](CCC(=O)O)NC(=O)[C@H](CCC(=O)O)NC(=O)[C@@H](NC(=O)[C@H](CCCCN)NC(=O)[C@H](CCCCN)NC(=O)[C@H](CC(=O)O)NC(=O)[C@H](Cc1c[nH]c2ccccc12)NC(=O)[C@H](CCC(=O)O)NC(=O)[C@H](CCC(=O)O)NC(=O)[C@H](Cc1c[nH]c2ccccc12)NC(C)=O)[C@@H](C)CC)[C@@H](C)O)[C@@H](C)CC)C(=O)N[C@@H](CCCCN)C(=O)N[C@@H](CCCCN)C(=O)N[C@@H](CCC(N)=O)C(=O)N[C@@H](CCC(=O)O)C(=O)N[C@@H](CCC(=O)O)C(=O)N[C@@H](CCC(N)=O)C(=O)N[C@@H](CCC(N)=O)C(=O)N[C@@H](CCCCN)C(=O)N[C@@H](CCCCN)C(=O)N[C@@H](CC(N)=O)C(=O)N[C@@H](CCC(=O)O)C(=O)N[C@@H](CCC(=O)O)C(=O)N[C@@H](CCC(=O)O)C(=O)N[C@@H](CC(C)C)C(=O)N[C@@H](CCCCN)C(=O)N[C@@H](CCCCN)C(N)=O` (Ac-WEEWDKKIEEYTKKIEELIKKQEEQQKKNEEELKK-NH2), the Activity in test [1] worked out at 6.1%; in test [2], 0.5%; in test [3], 2.1%; in test [4], 0.9%. Besides, the EC50 in test [5] came to 2.4 nM. Besides, the Tm in test [6] stood at 65.9 °C.
For the compound `CC[C@H](C)[C@H](NC(=O)[C@H](CC(C)C)NC(=O)[C@H](CCC(=O)O)NC(=O)[C@H](CCC(=O)O)NC(=O)[C@@H](NC(=O)[C@H](CCCCN)NC(=O)[C@H](CCCCN)NC(=O)[C@@H](NC(=O)[C@H](Cc1ccc(O)cc1)NC(=O)[C@H](CCC(=O)O)NC(=O)[C@H](CCC(=O)O)NC(=O)[C@@H](NC(=O)[C@H](CCCCN)NC(=O)[C@H](CCCCN)NC(=O)[C@H](CC(=O)O)NC(=O)[C@H](Cc1c[nH]c2ccccc12)NC(=O)[C@H](CCC(=O)O)NC(=O)[C@H](CCC(=O)O)NC(=O)[C@H](Cc1c[nH]c2ccccc12)NC(C)=O)[C@@H](C)CC)[C@@H](C)O)[C@@H](C)CC)C(=O)N[C@@H](CCCCN)C(=O)N[C@@H](CCCCN)C(=O)N[C@@H](CCCNC(=N)N)C(=O)N[C@@H](CCC(=O)O)C(=O)N[C@@H](CCC(=O)O)C(=O)N[C@@H](CCC(N)=O)C(=O)N[C@@H](CCC(N)=O)C(=O)N[C@@H](CCCCN)C(=O)N[C@@H](CCCCN)C(=O)N[C@@H](CC(N)=O)C(=O)N[C@@H](CCC(=O)O)C(=O)N[C@@H](CCC(=O)O)C(=O)N[C@@H](CCC(=O)O)C(=O)N[C@@H](CC(C)C)C(=O)N[C@@H](CCCCN)C(=O)N[C@@H](CCCCN)C(N)=O` (Ac-WEEWDKKIEEYTKKIEELIKKREEQQKKNEEELKK-NH2), the Activity is 2.5% in test [1], 0.1% in test [2], 0% in test [3] and 0.3% in test [4]. Besides, the EC50 in test [5] came to 280 nM. In addition, the Tm in test [6] is 52.3 °C.
Take `CC[C@H](C)[C@H](NC(=O)[C@H](CCCCN)NC(=O)[C@H](CCCCN)NC(=O)[C@H](CC(=O)O)NC(=O)[C@H](Cc1c[nH]c2ccccc12)NC(=O)[C@H](CCC(=O)O)NC(=O)[C@H](CCC(=O)O)NC(=O)[C@H](Cc1c[nH]c2ccccc12)NC(C)=O)C(=O)N[C@@H](CCC(=O)O)C(=O)N[C@@H](CCC(=O)O)C(=O)N[C@@H](Cc1ccc(O)cc1)C(=O)N[C@H](C(=O)N[C@@H](CCCCN)C(=O)N[C@@H](CCCCN)C(=O)N[C@H](C(=O)N[C@@H](CCC(=O)O)C(=O)N[C@@H](CCC(=O)O)C(=O)N[C@@H](CC(C)C)C(=O)N[C@H](C(=O)N[C@@H](CCCCN)C(=O)N[C@@H](CCCCN)C(=O)N[C@H](C(=O)N[C@@H](CCC(=O)O)C(=O)N[C@@H](CCC(=O)O)C(=O)N[C@@H](CCC(N)=O)C(=O)N[C@@H](CCC(N)=O)C(=O)N[C@@H](CCCCN)C(=O)N[C@@H](CCCCN)C(=O)N[C@@H](CC(N)=O)C(=O)N[C@@H](CCC(=O)O)C(=O)N[C@@H](CCC(=O)O)C(=O)N[C@@H](CCC(=O)O)C(=O)N[C@@H](CC(C)C)C(=O)N[C@@H](CCCCN)C(=O)N[C@@H](CCCCN)C(N)=O)C(C)C)[C@@H](C)CC)[C@@H](C)CC)[C@@H](C)O` (Ac-WEEWDKKIEEYTKKIEELIKKVEEQQKKNEEELKK-NH2): the Activity in test [1] turned out to be 7%; in test [2], 6%; in test [3] it was 12.1%; in test [4], 2.8%. For the same compound, the EC50 in test [5] was found to be 1.9 nM. In test [6], the Tm is 79.9 °C.

The EC50 is the concentration at which the effect is half-maximal. In general, Tm refers to the temperature at the midpoint of the melting transition.
